Test results reported in US11337420B2, “Cryopreservation of juvenile stages of barnacles” (Planktonic AS, priority 2016, dated 2022).
Read-outs that look alike come from different tables or passages of the source.

Legend:
[1] = test system: Barnacle nauplii stage I and II from Semibalanus balanoides; assay: Cryopreservation, thawing and revitalization of nauplii, viability check (different cryoprotectants, volume ratios, equilibrium periods); assay type: in vivo
Method: (§1) Barnacle nauplii (Semibalanus balanoides or Balanus crenatus) were drained and concentrated (10% dry weight) and mixed 1:1 with a cryoprotectant (on ice). The mixture was filled, sealed and equilibrated in a pouch (600 gram consisting of 300 ml cryoprotectant and 300 ml barnacles) for 30 minutes at 5 ° C. before transferring to a controlled freezer. The pouch was put in an aluminum rack, and temperature loggers were put inside the pouch and in the freezer to measure air temperature. Alternatively smaller amount of about 60 g or vials were used in the tests.
(§2) After freezing from 5 to −42 ° C., with a duration of >12 hours using the disclosed method, the pouches were soaked in liquid nitrogen until −196 ° C. were homogenously achieved inside the pouches. The pouches were transferred to cryocontainers (with liquid nitrogen) of 175 liters, and stored for more than 48 hours. To check viability, the pouches were removed from the cryocontainer, crushed to get out the content and thawed in cold seawater (less than 5 ° C.). After 15 minutes, the thawed nauplii were washed on a 100 μm filter to remove the cryoprotectant. Revitalization was performed for >8 hours in an aerated tank with 30 PSU seawater (start temperature 2.5 ° C.).
Barnacle nauplii stage I and II from Semibalanus balanoides were treated with a 6 molar solution of dimethyl sulfoxide (DMSO) as cryoprotectant and 1:1 mixing between cryoprotectant and organisms. Equilibrium was performed for 30 minutes at 3 to 5° C.
Samples of these organisms were cryopreserved in a volume ratio of A) 30% cryoprotectant to 70% organisms (volume/volume) and B) 40% cryoprotectant to 60% organisms (volume/volume). The control was C) 50% cryoprotectant to 50% organisms (volume/volume). All tests were carried out in triplicate.
(1:1 volume ratio with organisms). Thereafter the organisms were cryopreserved by the disclosed method, stored in liquid nitrogen for 48 hours, thawed and revitalized. The barnacle nauplii were analyzed for their vitality using a binocular microscope.

nauplii = conditions: salt in the cryoprotectant solution compared to no salt addition
Description: The final salt concentration of NaCl is thereby preferably between 2.0 to 4.5%, more preferably between 3.0 to 3.8%, most preferred between 3.2 and 3.8%.

[2] = for content of ethylene glycol in drained barnacle nauplii: revitalization in 30 liters of seawater
Description: Immediately after thawing, the nauplii was drained for water and frozen again.
A small piece of frozen material was taken on a filter, and rinsed until it was thawed, and thereafter frozen and analyzed. […] When revitalized, the barnacle nauplii were drained again for seawater, and added 30 liters of seawater.

[3] = test system: Barnacle nauplii stage I and II from Semibalanus balanoides or Balanus crenatus; conditions: 7.2 molar solution, 1:1 mixing between cryoprotectant and organisms
Method: as §1, §2

aquatic organisms = aquatic organisms in general; cited from earlier work
[4] = test system: nauplii of Balanus amphitrite; conditions: 3 to 4 M, equilibration time up to 2 h; cited from earlier work
[5] = test system: Barnacle nauplii stage I and II of Semibalanus balanoides
Method: Samples were taken out after 0, 1, 2, 4, 8, 12, and 24 hours and the cryoprotectant was washed out to check viability of the nauplii. Levels of viability were identified as 0, 1, 2, 3, 4 and 5. “0” represents no activity (dead nauplii), 1-3 are twitching of appendages less than pre-cryopreserved nauplii, but 3 are close to natural swimming. 4 are swimming as pre-cryopreserved nauplii, and 5 are over-stimulated nauplii.

[6] = 600 gram sample in 15 liter seawater, after 15 minutes

C[S+](C)[O-] [DMSO, dimethyl sulfoxide]
viability after thawing ([1]; 6 molar solution, 1:1 mixing, equilibrium 30 minutes at 3 to 5° C.): comparable to barnacle nauplii exposed to ethylene glycol

[Cl-].[Na+] [NaCl]
revitalization of nauplii (nauplii): improve the revitalization of nauplii compared to no salt addition

OCCO [ethylene glycol]
equilibration of cryoprotectant with the organisms ([2]; 7.2 molar solution added to drained material): < 15%
content as share of the added ethylene glycol [2, 6]: < 2%
ethylene glycol concentration in nauplii [2, 6]: about 0.1 M
content of ethylene glycol in drained barnacle nauplii ([2]; after one hour): < 25 ppm
content of ethylene glycol in drained barnacle nauplii ([2]; after two hours, detection level): < 10 ppm
ethylene glycol concentration inside the organisms ([2]; second step: drained, 15 liter of seawater added for washing): < 300 ppm
ethylene glycol content in nauplii ([2]; time zero sample, rinsed until thawed, 7.2 M, volume ratio 1:1): 7400-11000 ppm
nauplii with natural swimming activity (level 4) after thawing [3]: > 50%
swimming activity level of the remaining nauplii after thawing [3]: 1-3
viability, difference between volume ratios ([1]; 30%, 40% or 50% cryoprotectant to 70%, 60% or 50% organisms (volume/volume), triplicate): no significant between the treatments in terms of viability
vitality, difference between equilibrium periods ([1]; incubated 0, 15, 30, 60 minutes in 7.2 M at 5 ° C., 1:1 volume ratio): No significant differences in vitality
vitality after equilibrium period ([1]; incubated 90 minutes in 7.2 M at 5 ° C., 1:1 volume ratio): less vital organisms than the other treatments
level regarded as non-toxic (aquatic organisms): ≤ 100 ppm
damage to nauplii [4]: did not cause damage
individuals showing relatively good swimming behavior ([5]; 7.2 molar ethylene glycol stock solution, on ice, even after 24 hour of exposure): 80-90%
level of viability of recovered nauplii ([5]; 7.2 molar ethylene glycol stock solution, on ice, even after 24 hour of exposure, cryoprotectant washed out): 2-3
harm to nauplii in toxicity test ([5]; equilibrium period of 24 hours with 7.2 M (stock solution) ice cold): does not considerably harm barnacle nauplii

CC(O)CO (centres unmarked) [propylene glycol]
percentage of viable nauplii after thawing ([1]; 40% by volume mixed with 60% by volume seawater, volume ratio 1:1): minimal compared to ethylene glycol
